Laboratory results: article PMC5358321 (Synapse (New York, N.Y.), 2016)
Values joined by “and” are separate entries in the source; they are usually repeats but may differ in a detail not shown here. Equal entries are not always repeated. Marks after values point to notes of the source that are not given here.

What was measured:
Aβ plaques [1] = test: Ki using ^125I-TZDM; format: binding
Aβ plaques [2] = settings: using ^125I-TZDM; ref Kung et al., 2003; cited from earlier work
Aβ plaques [3] = target: T1, Aβ plaques (Homo sapiens, UniProt P05067); test: Postmortem human brain; format: binding; settings: for GM/WM, local hot spots in grey matter: normal control NC2, hippocampus sections 7 μm
[4] = In vivo rat whole body PET/CT, interscapular brown adipose tissue; settings: for IBAT +ATX uptake / Ratio uptake at 4.5 min/uptake at 85 min, IBAT +ATX: atomoxetine preinjection
[5] = In vivo rat PET/CT, brain uptake; settings: for maximum (peak) activity levels in the various brain regions: 90 min scan; for time to approach plateau in cerebellum (CB): postinjection
Aβ plaques [6] = target: T1, Aβ plaques; test: In vitro binding affinity: inhibition of [^3H]PIB binding in human AD brain
Aβ plaques [7] = target: T1, Aβ plaques; settings: AD brain homogenates using ^18F-florbetapir; ref Choi et al., 2009; cited from earlier work
[8] = normal control NC1, hippocampus sections 7 μm
[9] = subject AD1, hippocampus sections 7 μm
[10] = subject AD2, hippocampus sections 7 μm
[11] = 4.5 min post iv injection, baseline
[12] = 4.5 min, atomoxetine preinjection
[13] = 85 min, atomoxetine preinjection

T1 sequence (P05067 672-711 limits assumed): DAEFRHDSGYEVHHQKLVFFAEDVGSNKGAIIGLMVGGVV

Row | SMILES | GM/WM (gray matter to white matter ratio) (Aβ plaques [3]; [8]) | GM/WM, local hot spots in grey matter (Aβ plaques [3]) | GM/WM (gray matter to white matter ratio) (Aβ plaques [3]; [9]) | GM/WM (gray matter to white matter ratio) (Aβ plaques [3]; [10]) | IBAT +ATX uptake ([4]; 4.5 min (initial uptake)) | IBAT Baseline uptake [4, 11] [%Injected dose/cc] | IBAT Baseline uptake ([4]; 85 min (end of scan), baseline) | IBAT +ATX uptake ([4]; 85 min) | Ratio uptake at 4.5 min/uptake at 85 min, IBAT +ATX [4] | Ratio uptake at 4.5 min/uptake at 85 min, IBAT Baseline ([4]; baseline) | Cerebellum +ATX uptake [5, 12] [%injected dose/cc] | Frontal Cortex +ATX uptake [5, 12] [%injected dose/cc] | Brain-stem uptake [5, 11] [%injected dose/cc] | Cerebellum uptake [5, 11] [%injected dose/cc] | Frontal Cortex uptake [5, 11] [%injected dose/cc] | Brain-stem uptake ([5]; 85 min (end of scan), baseline) [%injected dose/cc] | Cerebellum +ATX uptake [5, 13] [%injected dose/cc] | Frontal Cortex +ATX uptake [5, 13] | Cerebellum uptake ([5]; 85 min, baseline) [%injected dose/cc] | Frontal Cortex uptake ([5]; 85 min, baseline) [%injected dose/cc] | also measured
1 | CNc1ccc(C=Cc2ccc(N(C)C)cc2)cc1 [Dalene, 4-methylamino-4′-N,N-dimethylaminostyrylbenzene] | – | – | – | – | – | – | – | – | – | – | – | – | – | – | – | – | – | – | – | – | Times weaker affinity compared to SB-13 (Aβ plaques [1]; ^125I-TZDM assay, Kung et al., 2003): approximately 5; Binding affinity relative to SB-13 (Aβ plaques [1]; compared to affinity measures of SB-13 in the same assay (^125I-TZDM; Kung et al., 2003)): (0.21) ^i; Ki (Aβ plaques [2]): 15 nM and 15.2 nM
2 | CN(C)c1ccc(C=Cc2ccc(N[11CH3])cc2)cc1 [[^11C]Dalene, ^11C-methylamino-4′-dimethylaminostyrylbenzene] | ~1 | grey matter (~2) | 3.68 | 5.34 | 0.05 %Injected dose/cc and 0.054 %Injected dose/cc | 0.018 | 0.12 %Injected dose/cc and 0.118 %Injected dose/cc | 0.05 %Injected dose/cc | 1.08 | 0.15 | 0.788 | 0.828 | 0.011 | 0.015 | 0.015 | 0.124 | 0.304 | 0.30 %injected dose/cc and 0.304 %injected dose/cc | 0.072 | 0.069 | fold lower GM/WM ratio than [^11C]TAZA (Aβ plaques [3]; AD subjects): approximately 5 fold; Ratio of brainstem to frontal cortex [5, 13]: 1.75; Ratio of cerebellum to frontal cortex [5, 13]: 1.0; Ratio of brainstem to frontal cortex ([5]; 85 min postinjection, baseline): 1.80; Ratio of cerebellum to frontal cortex ([5]; 85 min postinjection, baseline): 1.04; Ratio uptake at 4.5 min/uptake at 85 min, Brain-stem +ATX ([5]; atomoxetine preinjection): 2.12; Ratio uptake at 4.5 min/uptake at 85 min, Cerebellum +ATX ([5]; atomoxetine preinjection): 2.59; Ratio uptake at 4.5 min/uptake at 85 min, Frontal Cortex +ATX ([5]; atomoxetine preinjection): 2.72; Ratio uptake at 4.5 min/uptake at 85 min, Brain-stem ([5]; baseline): 0.09; Ratio uptake at 4.5 min/uptake at 85 min, Cerebellum ([5]; baseline): 0.21; time at which brain uptake plateaued ([5]; baseline): approximately 60 min; maximum (peak) activity levels in the various brain regions ([5]; baseline): approximately 0.1 % injected dose/cc; time to approach plateau in cerebellum (CB) ([5]; baseline): approximately 40 min
3 | [11CH3]Nc1ccc(-c2nc3ccc(O)cc3s2)cc1 [[^11C]PIB] | – | – | – | – | – | – | 0.056 %Injected dose/cc | – | – | – | – | – | – | 0.823 | 0.714 | 0.056 | – | – | 0.124 | 0.045 | –
4 | CNc1ccc(N=Nc2ccc(N(C)C)cc2)cc1 [TAZA, 4-methylamino-4′-N,N-dimethylaminoazobenzene] | – | – | – | – | – | – | – | – | – | – | – | – | – | – | – | – | – | – | – | – | Binding affinity Relative to PIB (Aβ plaques [6]): 7.81 ^g
5 | CN(C)c1ccc(N=Nc2ccc(N[11CH3])cc2)cc1 [[^11C]TAZA, 4-[^11C]methylamino-4′-N,N-dimethylaminoazo-benzene] | ~1 | in grey matter (≥5) | 19.6 | 30.5 | 0.15 %Injected dose/cc and 0.148 %Injected dose/cc | 0.015 | 0.43 %Injected dose/cc and 0.429 %Injected dose/cc | 0.02 %Injected dose/cc and 0.016 %Injected dose/cc | 9 and 9.25 | 0.04 | 0.695 | 0.627 | 0.013 | 0.010 | 0.007 | 0.285 | 0.154 | 0.160 %injected dose/cc | 0.192 | 0.16 | displacement of [^11C]TAZA binding by PIB (Aβ plaques [3]; 10 μM PIB, gray matter of AD1 and AD2 hippocampus): > 90% and > 94%; gray matter to white matter ratios in AD brains (Aβ plaques [3]; AD brains, summary statement): > 20; time at which IBAT activity leveled off / plateau ([4]; baseline): ~90 min; Ratio of brainstem to frontal cortex ([5]; 85 min postinjection, baseline): 1.78; Ratio of cerebellum to frontal cortex ([5]; 85 min postinjection, baseline): 1.20; Ratio uptake at 4.5 min/uptake at 85 min, Brain-stem +ATX ([5]; atomoxetine preinjection): 4.2; Ratio uptake at 4.5 min/uptake at 85 min, Cerebellum +ATX ([5]; atomoxetine preinjection): 4.51; Ratio uptake at 4.5 min/uptake at 85 min, Frontal Cortex +ATX ([5]; atomoxetine preinjection): 3.92; ratio between initial time (4.5 min) and later time (85 min), brain regions ([5]; atomoxetine preinjection, brain regions overall): ~5; Ratio uptake at 4.5 min/uptake at 85 min, Brain-stem ([5]; baseline): 0.05; Ratio uptake at 4.5 min/uptake at 85 min, Cerebellum ([5]; baseline): 0.05; time at which brain uptake plateaued ([5]; baseline): approximately 60 min; maximum (peak) activity levels in the various brain regions ([5]; baseline): approximately 0.3 % injected dose/cc; time to approach plateau in cerebellum (CB) ([5]; baseline): approximately 50 min; reduction of brainstem to frontal cortex ratio by atomoxetine ([5]; end of scan): approximately 10%
6 | CNc1ccc(-c2cc3cc(O)ccc3o2)c(F)n1 [AZD4694] | – | – | – | – | – | – | – | – | – | – | – | – | – | – | – | – | – | – | – | – | Ki (Aβ plaques [7]): 2.3 nM
